Assay results: patent US20170354600A1, “COMPOSITION AND METHOD FOR STABILIZING GSH” (priority 2016, published 2017)
Read-outs that look alike come from different tables or passages of the source.

Experiments:
[1] = GSH retention in solid composition exposed to hydrogen peroxide oxidation (Ellman colorimetric, 405 nm); conditions: 0.1 mmol GSH, 1 ml hydrogen peroxide 1.0% w/v
Method: 0.1 mmol of reduced glutathione (96%) was premixed with 5 g of liquid sorbitol (96%, Roquette Corp) using magnetic stirring for 15 minutes at room temperature. Then, as described in Table 2, an amount of each food grade antioxidant were separately added for each test, followed by an additional 10 minutes of stirring. The mixture was then homogeneously dispersed in 100 g of powder sorbitol using mechanical high shear blending for 3 minutes. 1 ml of hydrogen peroxide solution 1.0% w/v was added to each test and a continue mixing for additional 1 minute. A control test with no antioxidant was also performed.
After 6 hours of exposure to oxidation, 5 g of the treated solid mixture was added to 30 ml of 0.1M disodium phosphate/0.001 mM EDTA pH 8.0 buffer solution. This solution was then extracted 3 times with chloroform using a separation funnel. The remaining aqueous phase was added to 100 ml volumetric flask and the volume was completed using 0.1M disodium phosphate/0.001 mM EDTA pH 8.5 buffer solution. The GSH present in this solution was quantify by colorimetric method at 405 nm using Elman's reagent, 5,5′-Dithio-bis-(2-nitrobenzoic acid), using L-glutathione 99%, provided by Sigma Aldrich, as standard. The retaining percentage for each solid composition was calculated and expressed as percentage values in Table 3. […]

[2] = GSH retention in liquid composition exposed to hydrogen peroxide oxidation (Ellman colorimetric, 405 nm); conditions: 0.1 mmol GSH, pH 8.0 buffer, 1 ml hydrogen peroxide 0.5% w/v
Method: 0.1 mmol of reduced glutathione (Kohjin Co. Ltd) was premixed with 5 g of liquid sorbitol (96%, Roquette Corp) using magnetic stirring for 10 minutes. Then, as described in Table 5, incremental concentrations of food grade antioxidants where added followed by additional 10 minutes of stirring. The mixture was then added to 100 g of 0.1M disodium phosphate/0.001 mM EDTA pH 8.0 buffer solution, then 1 ml of hydrogen peroxide solution 0.5% w/v was added to each test. A control test with no antioxidant was also performed.
After 1 hour of exposure to oxidation, 5 grams of the treated solution was added to 30 ml of 0.1M disodium phosphate/0.001 mM EDTA pH 8.5 buffer solution. This solution was then extracted 3 times with chloroform using a separation funnel. The remaining aqueous phase was added to a 100 ml volumetric flask and the volume was completed using 0.1M disodium phosphate/0.001 mM EDTA pH 8.0 buffer solution. The GSH present in this solution was quantify by colorimetric method at 405 nm using Elman's reagent, 5,5′-Dithio-bis-(2-nitrobenzoic acid), using L-glutathione 99%, provided by Sigma Aldrich, as standard. The retaining percentage for each solid composition was calculated and expressed as percentage values in Table 6. […]

[3] = GSH, cited from earlier work

Compound | Retention percentage after 6 hours of oxidation in solid compositions ([1]; 0.001 mmol antioxidant) [%] | Retention percentage after 6 hours of oxidation in solid compositions ([1]; 0.01 mmol antioxidant) [%] | Retention percentage after 6 hours of oxidation in solid compositions ([1]; 10 mmol antioxidant) [%] | Retention percentage after 6 hours of oxidation in solid compositions ([1]; 18.18 mmol antioxidant) [%] | Retention percentage after 1 hour of oxidation in liquid composition ([2]; 0.001 mmol antioxidant) [%] | Retention percentage after 1 hour of oxidation in liquid composition ([2]; 0.01 mmol antioxidant) [%] | Retention percentage after 1 hour of oxidation in liquid composition ([2]; 1 mmol antioxidant) [%] | Retention percentage after 1 hour of oxidation in liquid composition ([2]; 10 mmol antioxidant) [%] | Half life ([3]; pH 6.5, 20° C., 0.1M K2HPO4/KH2PO4 Buffer) [min] | Half life ([3]; pH 7.5, 20° C., 0.1M K2HPO4/KH2PO4 Buffer) [min] | Half life ([3]; pH 8.5, 0° C., 0.1M K2HPO4/KH2PO4 Buffer) [min] | Half life ([3]; pH 8.5, 20° C., 0.1M K2HPO4/KH2PO4 Buffer + 0.1 nM Cu + 2) [min] | Half life ([3]; pH 8.5, 20° C., 0.1M K2HPO4/KH2PO4 Buffer + 1.0 nM EDTA) [min] | Half life ([3]; pH 8.5, 20° C., 0.1M K2HPO4/KH2PO4 Buffer) [min] | Half life ([3]; pH 8.5, 40° C., 0.1M K2HPO4/KH2PO4 Buffer) [min]
O=C1O[C@H]([C@@H](O)CO)C(O)=C1O [Ascorbic acid, L-Ascorbic acid] | 0.00 | 14.29 | 28.96 | 18.18 | 0.00 | 0.00 | 17.92 | 32.08 | – | – | – | – | – | – | –
CCCCCCCCCCCCCCCC(=O)OC[C@H](O)[C@H]1OC(=O)C(O)=C1O [Ascorbyl palmitate] | 18.18 | 25.97 | 46.10 | 36.88 | 0.00 | 13.38 | 18.83 | 36.36 | – | – | – | – | – | – | –
N[C@@H](CCC(=O)N[C@@H](CS)C(=O)NCC(=O)O)C(=O)O [GSH, Reduced glutathione] | – | – | – | – | – | – | – | – | 16 | 9 | 8 | 1.2 | 70 | 1.3 | 0.2
CC(=O)OC/C=C(C)/C=C/C=C(C)/C=C/C1=C(C)CCCC1(C)C [Vitamin A, Vitamin A acetate] | 28.57 | 33.77 | 51.04 | 46.36 | 14.29 | 21.95 | 33.25 | 49.79 | – | – | – | – | – | – | –
CC(=O)Oc1c(C)c(C)c2c(c1C)CC[C@@](C)(CCC[C@H](C)CCC[C@H](C)CCCC(C)C)O2 [Vitamin E, DL alpha tocopheryl acetate] | 24.16 | 31.04 | 45.19 | 39.61 | 10.39 | 16.88 | 30.39 | 41.69 | – | – | – | – | – | – | –
